Reference: patent publication EP0507256A2, “Tyrosine phosphorylation in protozoa” (Bristol-Myers Squibb Company, priority 1991, dated 1992)

How the values were obtained:
[1] = tested on: TREU 667 procyclic forms; test: Anti-p-tyr immunoblot (Western) analysis of protein tyrosine phosphorylation after orthovanadate treatment; type: cell-based, T. brucei; parameters: level of protein tyrosine phosphorylation of specific substrates, particularly ptp40 and ptp42: dose or concentration left out as unconfirmed
Experimental: In the drawings: • FIGURE 1 illustrates the specificity of reactivity with anti-p-tyr antibodies. Lysate from the monomorphic trypanosome strain EATRO 164, clone IHRI 1, procyclic forms (10⁷ cells) was loaded per lane on a 10% sodium dodecyl sulfate polyacrylamide gel electrophoresis (SDS-PAGE) gel. Proteins were transferred to polyvinylidene difluoride membranes, incubated with anti-p-tyr antibodies, and followed by treatment with ¹²⁵I-protein A. Panel A: 0.25 µg ml⁻¹ anti-p-tyr antibodies. Panel B: 1 µg ml⁻¹ anti-p-tyr antibodies, plus 40 mM phenyl phosphate. Molecular weight markers are indicated. Lanes 1 and 2 differ only in the concentration of orthovanadate used during cell processing. • FIGURE 2 illustrates immunoprecipitation and phosphoamino acid analysis. Panel 2A: Western analysis of anti-p-tyr immunoprecipitates. Immunoreactive proteins were enriched by immunoprecipitation as described herein. Each lane was loaded with material corresponding to the same amount of cell lysate. Lanes: 1) total cell lysate; 2) lysate cleared of proteins reactive with anti-p-tyr; 3) eluate from anti-p-tyr immunoprecipitation. Panel 2B: Two-dimensional phosphoamino acid analysis. Procyclic forms were metabolically labelled with [³²P] orthophosphate, and proteins reactive with the anti-p-tyr antiserum were enriched by immunoprecipitation as described above. The proteins were hydrolyzed and phosphoamino acids separated by two-dimensional electrophoresis. […] Lysate of 10⁷ cells from each stage of the life cycle was loaded. TREU 667 is a pleiomorphic strain; EATRO 164 is a monomorphic strain. Independent samples produced by difluoromethylornithine (DFMO) treatment are indicated (D). PF 100% mid-log phase procyclic culture forms. SL Slender bloodforms (EATRO, 100% slender; TREU 75% slender). INT Intermediate bloodforms (approximately 20% slender, 60% intermediate, 20% late intermediate-stumpy). ST Stumpy bloodforms (>60% late intermediate-stumpy, the remainder intermediate). • FIGURE 4 illustrates the solubility analysis of immunoreactive proteins. TREU 667 procyclic form cells were lysed in buffer containing various detergents as indicated. Lanes: 1) 1% NP-40 + 0.25% deoxycholate; 2) 1% NP-40; 3) 2% SDS; 4) freeze/thaw lysis. Solubilized proteins (S), insoluble pellets (P), total lysate (T). • FIGURE 5 illustrates the effect of orthovanadate on cell growth. […] Growth of the parasites was monitored by measuring the optical density at 600 nm over ranges which were previously established to be linearly related to cell density. • FIGURE 6 illustrates the effect of orthovanadate on protein phosphorylation and tyrosine phosphorylation in TREU 667 procyclic forms. […] The cells were rinsed three times and an aliquot equivalent to 2.3 x 10⁵ cells was analyzed by SDS-PAGE and autoradiography. […]

[2] = tested on: T. brucei cells; test: Tyrosine phosphorylation with tyrosine kinase inhibitors in the presence of orthovanadate; type: cell-based; conditions: in the presence of the tyrosine phosphatase inhibitor orthovanadate
Source text: Many inhibitors of mammalian tyrosine kinase have been investigated by the present inventors to determine if tyrosine phosphorylation is reduced in the tested organisms.

[3] = tested on: TREU 667 procyclic forms; test: SDS-PAGE analysis of proteins of cells metabolically labelled with [32P]-orthophosphate; type: cell-based, T. brucei; conditions: 1.5 µM orthovanadate, started one hour before overnight labelling (FIGURE 6C)
Experimental: (§1) In the drawings: • FIGURE 1 illustrates the specificity of reactivity with anti-p-tyr antibodies. Lysate from the monomorphic trypanosome strain EATRO 164, clone IHRI 1, procyclic forms (10⁷ cells) was loaded per lane on a 10% sodium dodecyl sulfate polyacrylamide gel electrophoresis (SDS-PAGE) gel. Proteins were transferred to polyvinylidene difluoride membranes, incubated with anti-p-tyr antibodies, and followed by treatment with ¹²⁵I-protein A. Panel A: 0.25 µg ml⁻¹ anti-p-tyr antibodies. Panel B: 1 µg ml⁻¹ anti-p-tyr antibodies, plus 40 mM phenyl phosphate. Molecular weight markers are indicated. Lanes 1 and 2 differ only in the concentration of orthovanadate used during cell processing. • FIGURE 2 illustrates immunoprecipitation and phosphoamino acid analysis. Panel 2A: Western analysis of anti-p-tyr immunoprecipitates. Immunoreactive proteins were enriched by immunoprecipitation as described herein. […] Growth of the parasites was monitored by measuring the optical density at 600 nm over ranges which were previously established to be linearly related to cell density. • FIGURE 6 illustrates the effect of orthovanadate on protein phosphorylation and tyrosine phosphorylation in TREU 667 procyclic forms. […] The cells were rinsed three times and an aliquot equivalent to 2.3 x 10⁵ cells was analyzed by SDS-PAGE and autoradiography. […]

[4] = tested on: TREU 667 procyclic form cells; test: Effect of orthovanadate on cell growth (optical density at 600 nm); type: cell-based, T. brucei
Experimental: as §1

SMILES: C[C@@H]1C[C@@H]([C@H](O)CC2CC(=O)NC(=O)C2)C(=O)[C@@H](C)C1 [cycloheximide]
- effect of cycloheximide on increased tyrosine phosphorylation mediated by orthovanadate [1]: does not prevent increased tyrosine phosphorylation

SMILES: O=c1c(-c2ccc(O)cc2)coc2cc(O)cc(O)c12 [genestin]
- tyrosine phosphorylation in T. brucei cells [2]: decreased tyrosine phosphorylation

SMILES: [O]=[V]([O-])([O-])[O-] [orthovanadate]
- time until tyrosine phosphorylation was maximal ([1]; 15 µM orthovanadate (FIGURE 6B)): ≤ 2 h
- level of protein tyrosine phosphorylation of specific substrates, particularly ptp40 and ptp42 ([1]; after 6 hours in orthovanadate (FIGURE 6A)): increased dramatically
- time until tyrosine phosphorylation returned to near control levels ([1]; after the drug was removed (cells grown in orthovanadate, rinsed free of drug)): ≤ 24 h
- pattern of 32P-labelled proteins observed after SDS-PAGE [3]: the same in control and treated cells
- growth and motility of procyclic forms ([4]; 1.5 µM orthovanadate): nonmotile but continued to divide, albeit more slowly
- toxicity to trypanosomes ([4]; procyclic forms, concentrations approaching those used to cause phenotypic transformation of mammalian cells (30 µM)): toxic
